Test results: PubChem BioAssay (NCI)
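Grown in 96-well plates, cells were treated for 48 hours with each compound at five concentrations. Insufficient inhibition: endpoint recorded as highest concentration tested. The concentration for full growth arrest is given as TGI.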

How the values were obtained:
Experiment in all cases: growth of human tumour cells (NCI), 48 h
[1] = system: OVCAR-5 ovarian
[2] = system: NCI-H226 lung
[3] = system: HOP-62 NSCLC
[4] = system: EKVX NSCLC
[5] = system: RPMI-8226 leukemia
[6] = system: HCT-15 colon
[7] = system: MDA-MB-435
[8] = system: KM12 colon
[9] = system: UACC-257 melanoma
[10] = system: 786-0 renal
[11] = system: NCI/ADR-RES ovarian
[12] = system: SN12C renal
[13] = system: CAKI-1 renal
[14] = system: MOLT-4 leukemia
[15] = system: T-47D breast
[16] = system: M14 melanoma
[17] = system: ACHN renal
[18] = system: DU-145 prostate
[19] = system: RXF 393 renal
[20] = system: CCRF-CEM leukemia
[21] = system: IGROV1 ovarian
[22] = system: OVCAR-8 ovarian
[23] = system: MDA-N
[24] = system: PC-3 prostate
[25] = system: SNB-19 CNS
[26] = system: U251 CNS
[27] = system: UO-31 renal
[28] = system: HS 578T breast
[29] = system: MDA-MB-231 breast
[30] = system: SF-268 CNS
[31] = system: SK-MEL-2 melanoma
[32] = system: SF-539 CNS
[33] = system: SK-MEL-28 melanoma
[34] = system: A498 renal
[35] = system: COLO 205 colon
[36] = system: HT29 colon
[37] = system: SK-MEL-5 melanoma
[38] = system: SF-295 CNS
[39] = system: MALME-3M melanoma
[40] = system: SNB-75 CNS
[41] = system: TK-10 renal
[42] = system: NCI-H23 lung
[43] = system: SW-620 colon
[44] = system: LOX IMVI melanoma
[45] = system: NCI-H460 lung
[46] = system: HOP-92 NSCLC
[47] = system: UACC-62 melanoma
[48] = system: BT-549 breast
[49] = system: K-562 leukemia
[50] = system: OVCAR-4 ovarian
[51] = system: OVCAR-3 ovarian
[52] = system: HCC-2998 colon
[53] = system: HCT-116 colon
[54] = system: NCI-H522 lung
[55] = system: A549 NSCLC
[56] = system: HL-60(TB) leukemia
[57] = system: MCF7 breast
[58] = system: SR leukemia
[59] = system: SK-OV-3 ovarian

For `CC[C@@H]1C(=O)OC[C@@H]1Cc1cncn1C`, the TGI [1] was > 100 µM, the TGI [2] was > 100 µM and the TGI [3] was > 100 µM. For the same molecule, the TGI [4] was > 100 µM, the TGI [5] was > 100 µM and the TGI [6] was > 100 µM. The TGI [7] was > 100 µM, the TGI [8] was > 100 µM and the TGI [9] was > 100 µM. For the same molecule, the TGI [10] was > 100 µM, the TGI [11] was > 100 µM and the TGI [12] was > 100 µM. The TGI [13] was > 100 µM, the TGI [14] was > 100 µM and the TGI [15] was > 100 µM. The TGI [16] was > 100 µM, the TGI [17] was > 100 µM and the TGI [18] was > 100 µM. The TGI [19] was > 100 µM, the TGI [20] was > 100 µM and the TGI [21] was > 100 µM. The TGI [22] was > 100 µM, the TGI [23] was > 100 µM and the TGI [24] was > 100 µM. The TGI [25] was > 100 µM, the TGI [26] was > 100 µM and the TGI [27] was > 100 µM. For the same molecule, the TGI [28] was > 100 µM, the TGI [29] was > 100 µM and the TGI [30] was > 100 µM. The TGI [31] was > 100 µM, the TGI [32] was > 100 µM and the TGI [33] was > 100 µM. The TGI [34] was > 100 µM, the TGI [35] was > 100 µM and the TGI [36] was > 100 µM. The TGI [37] was > 100 µM, the TGI [38] was > 100 µM and the TGI [39] was > 100 µM. For the same molecule, the TGI [40] was > 100 µM, the TGI [41] was > 100 µM and the TGI [42] was > 100 µM. The TGI [43] was > 100 µM, the TGI [44] was > 100 µM and the TGI [45] was > 100 µM. For the same molecule, the TGI [46] was > 100 µM, the TGI [47] was > 100 µM and the TGI [48] was > 100 µM. The TGI [49] was > 100 µM, the TGI [50] was > 100 µM and the TGI [51] was > 100 µM. The TGI [52] was > 100 µM, the TGI [53] was > 100 µM and the TGI [54] was > 100 µM. The TGI [55] was > 100 µM, the TGI [56] was > 100 µM and the TGI [57] was > 100 µM. For the same molecule, the TGI [58] was > 100 µM and the TGI [59] was > 100 µM.
For `O=C(O)CCCSc1ccccc1`, the TGI [1] was > 100 µM, the TGI [2] was > 100 µM and the TGI [3] was > 100 µM. For the same molecule, the TGI [4] was > 100 µM, the TGI [5] was > 100 µM and the TGI [6] was > 100 µM. The TGI [7] was > 100 µM, the TGI [8] was > 100 µM and the TGI [9] was > 100 µM. For the same molecule, the TGI [10] was > 100 µM, the TGI [11] was > 100 µM and the TGI [12] was > 100 µM. The TGI [13] was > 100 µM, the TGI [14] was > 100 µM and the TGI [15] was > 100 µM. The TGI [16] was > 100 µM, the TGI [17] was > 100 µM and the TGI [18] was > 100 µM. For the same molecule, the TGI [19] was > 100 µM, the TGI [20] was > 100 µM and the TGI [21] was > 100 µM. The TGI [22] was > 100 µM, the TGI [23] was > 100 µM and the TGI [24] was > 100 µM. The TGI [25] was > 100 µM, the TGI [26] was > 100 µM and the TGI [27] was > 100 µM. The TGI [28] was > 100 µM, the TGI [29] was > 100 µM and the TGI [30] was > 100 µM. The TGI [31] was > 100 µM, the TGI [32] was > 100 µM and the TGI [33] was > 100 µM. For the same molecule, the TGI [34] was > 100 µM, the TGI [35] was > 100 µM and the TGI [36] was > 100 µM. The TGI [37] was > 100 µM, the TGI [38] was > 100 µM and the TGI [39] was > 100 µM. The TGI [40] was > 100 µM, the TGI [41] was > 100 µM and the TGI [42] was > 100 µM. For the same molecule, the TGI [43] was > 100 µM, the TGI [44] was > 100 µM and the TGI [45] was > 100 µM. For the same molecule, the TGI [46] was > 100 µM, the TGI [47] was > 100 µM and the TGI [48] was > 100 µM. The TGI [49] was > 100 µM, the TGI [50] was > 100 µM and the TGI [51] was > 100 µM. For the same molecule, the TGI [52] was > 100 µM, the TGI [53] was > 100 µM and the TGI [54] was > 100 µM. For the same molecule, the TGI [55] was > 100 µM, the TGI [56] was > 100 µM and the TGI [57] was > 100 µM. The TGI [58] was > 100 µM and the TGI [59] was > 100 µM.
In the case of `Cc1cccc2c1C(=O)[C@](C)([C@]1(C)Nc3cccc(C)c3C1=O)N2`, the TGI [1] is reported as 58 µM, the TGI [2] is reported as > 100 µM and the TGI [3] is reported as 84.9 µM. The TGI [4] was 71.7 µM, the TGI [5] was 53.7 µM and the TGI [6] was > 100 µM. For the same molecule, the TGI [7] was 35.7 µM, the TGI [8] was > 100 µM and the TGI [9] was > 100 µM. For the same molecule, the TGI [10] was > 100 µM, the TGI [11] was > 100 µM and the TGI [12] was > 100 µM. It also gave a TGI [13] of 69.2 µM, a TGI [14] of 72.6 µM and a TGI [15] of 87.9 µM. The TGI [16] was > 100 µM, the TGI [17] was > 100 µM and the TGI [18] was > 100 µM. For the same molecule, the TGI [19] was > 100 µM, the TGI [20] was 48.3 µM and the TGI [21] was > 100 µM. For the same molecule, the TGI [22] was 72.8 µM, the TGI [23] was 63 µM and the TGI [24] was > 100 µM. The TGI [25] was > 100 µM, the TGI [26] was > 100 µM and the TGI [27] was 51.8 µM. The TGI [28] was 67.8 µM, the TGI [29] was > 100 µM and the TGI [30] was 55.8 µM. The TGI [31] was 69.2 µM, the TGI [32] was 74.9 µM and the TGI [33] was > 100 µM. For the same molecule, the TGI [34] was > 100 µM, the TGI [35] was 44.6 µM and the TGI [36] was > 100 µM. For the same molecule, the TGI [37] was > 100 µM, the TGI [38] was 68.9 µM and the TGI [39] was > 100 µM. The TGI [40] was 41.2 µM, the TGI [42] was 77.4 µM and the TGI [43] was > 100 µM. The TGI [44] was > 100 µM, the TGI [45] was > 100 µM and the TGI [46] was 75.7 µM. The TGI [47] was > 100 µM, the TGI [48] was 62.5 µM and the TGI [49] was > 100 µM. For the same molecule, the TGI [50] was > 100 µM, the TGI [51] was 83.3 µM and the TGI [52] was > 100 µM. For the same molecule, the TGI [53] was > 100 µM, the TGI [54] was 80.9 µM and the TGI [55] was > 100 µM. For the same molecule, the TGI [56] was 0.54 µM, the TGI [57] was > 100 µM and the TGI [58] was 93.5 µM. It also gave a TGI [59] of 76.6 µM.
For `O=C1c2ccccc2CN1c1ccc(OCCN2CCCCC2)cc1`, the TGI [1] was > 10 µM, the TGI [2] was > 10 µM and the TGI [3] was > 10 µM. For the same molecule, the TGI [4] was > 10 µM, the TGI [5] was > 10 µM and the TGI [6] was > 10 µM. The TGI [7] was > 10 µM, the TGI [8] was > 10 µM and the TGI [9] was > 10 µM. For the same molecule, the TGI [10] was > 10 µM, the TGI [11] was > 10 µM and the TGI [12] was > 10 µM. For the same molecule, the TGI [13] was > 10 µM, the TGI [14] was > 10 µM and the TGI [15] was > 10 µM. For the same molecule, the TGI [16] was > 10 µM, the TGI [17] was > 10 µM and the TGI [18] was > 10 µM. The TGI [19] was > 10 µM, the TGI [20] was > 10 µM and the TGI [21] was > 10 µM. For the same molecule, the TGI [22] was > 10 µM, the TGI [23] was > 10 µM and the TGI [24] was > 10 µM. For the same molecule, the TGI [25] was > 10 µM, the TGI [26] was > 10 µM and the TGI [27] was > 10 µM. For the same molecule, the TGI [28] was > 10 µM, the TGI [29] was > 10 µM and the TGI [30] was > 10 µM. The TGI [31] was > 10 µM, the TGI [32] was > 10 µM and the TGI [33] was > 10 µM. The TGI [34] was > 10 µM, the TGI [35] was > 10 µM and the TGI [36] was > 10 µM. The TGI [37] was > 10 µM, the TGI [38] was > 10 µM and the TGI [39] was > 10 µM. For the same molecule, the TGI [40] was > 10 µM, the TGI [41] was > 10 µM and the TGI [42] was > 10 µM. For the same molecule, the TGI [43] was > 10 µM, the TGI [44] was > 10 µM and the TGI [45] was > 10 µM. The TGI [46] was > 10 µM, the TGI [47] was > 10 µM and the TGI [48] was > 10 µM. For the same molecule, the TGI [49] was > 10 µM, the TGI [50] was > 10 µM and the TGI [51] was > 10 µM. For the same molecule, the TGI [52] was > 10 µM, the TGI [53] was > 10 µM and the TGI [54] was > 10 µM. The TGI [55] was > 10 µM, the TGI [56] was > 10 µM and the TGI [57] was > 10 µM. For the same molecule, the TGI [58] was > 10 µM and the TGI [59] was > 10 µM.
